According to article PMC8284473, “Preliminary Characterization of NP339, a Novel Polyarginine Peptide with Broad Antifungal Activity” (Antimicrobial Agents and Chemotherapy, 2021):

Experiments:
[1] = Tolerability in mouse models of infection; format: in vivo; details: at the therapeutic doses and duration of therapy used
Protocol: In all experiments, the animals were housed 4 or 5/cage in sterilized individual ventilated cages exposing the mice at all times to HEPA-filtered sterile air. Food and water were available ad libitum, and sterile aspen chip bedding was changed at least once weekly. The room temperature was 22 ± 1°C, with a relative humidity of 60% and maximum background noise of 56 dB. Mice were exposed to 12-h light/dark cycles. Before the experiments, the animals were randomly divided into groups. After the experiments, the animals were sacrificed by humane euthanasia by delivering 0.5 ml of 200 mg/ml pentobarbital solution via intraperitoneal injection. For quantification of fungal burden, samples were diluted appropriately and then quantitatively cultured on to SAB containing 0.05 mg/ml chloramphenicol and incubated at 37°C for 24 to 48 h before enumeration.
Male CD1 mice (n = 24 mice, 6 to 8 weeks of age, average weight of 23.5 g) were obtained from Charles River, Margate, United Kingdom. […] The mice were culled 29 h postinfection, and fungal kidney burdens were determined by plating as previously described.
Female BALB/c mice (n = 24 mice, 6 to 8 weeks of age, weight of 16 to 18 g) were obtained from Charles River, Margate, United Kingdom. […] At 3 days postinfection, fungal burdens in vaginal lavage samples were determined as described above. […]

human whole blood = human whole blood exposed to the peptide; data not shown
human PBMCs = assay: NP339 cytotoxicity, LIVE/DEAD staining; format: cell-based; details: human PBMCs 5 × 10^5 cells/well, 2 h, 37°C, RPMI 1640; concentrations hundreds of folds above antifungal; n = 2
Protocol: PBMCs were isolated from fresh human whole blood using Leucosep tubes (Greiner Bio-One), according to the manufacturer’s instructions. The cells were suspended in RPMI 1640 medium (5 × 10^6 cells/ml) and transferred to 96-well plate (5 × 10^5 cells/well). NP339 solutions were prepared in prewarmed RPMI 1640 medium and added to the cell suspension. The plates were incubated at 37°C under 5% CO2 for 2 h. Toxicity was determined using the Molecular Probes LIVE/DEAD Viability/Cytotoxicity kit (Fisher Scientific UK, Ltd.). As the kill control, 0.1% (vol/vol) Triton X-100 was used. Untreated cells were the live control.

[2] = system: A549 epithelial lung cell line; assay: NP339 cytotoxicity, LIVE/DEAD staining; format: cell-based, human; details: A549 monolayer, 3 h, 37°C, RPMI 1640; concentrations hundreds of folds above antifungal; n = 2
Protocol: Lung epithelial cells (A549 cells; ATCC [distributed by LGC Promochem, Teddington, United Kingdom]) were cultured in a 96-well plate in Ham’s F-12K medium (Fisher Scientific UK, Ltd.) supplemented with 10% (vol/vol) fetal bovine serum. The cells were incubated under 5% CO2 at 37°C until 90% confluent. NP339 solutions and 0.25% SDS (the kill control) were prepared in prewarmed RPMI 1640 medium. Once the cells reached 90% confluence, the culture medium was removed from the 96-well plate, taking care not to disturb the cells, and 100 μl of NP339 solution was added to the cell monolayer. The plates were incubated at 37°C under 5% CO2 for 3 h. Toxicity was determined using the Molecular Probes LIVE/DEAD Viability/Cytotoxicity kit, as per the manufacturer’s instructions. As the kill control, 0.25% (wt/vol) SDS was used. Untreated cells were the live control (cells incubated with the medium).

**Q.** For N=C(N)NCCC[C@H](NC(=O)[C@H](CCCNC(=N)N)NC(=O)[C@H](CCCNC(=N)N)NC(=O)[C@H](CCCNC(=N)N)NC(=O)[C@H](CCCNC(=N)N)NC(=O)[C@H](CCCNC(=N)N)NC(=O)[C@H](CCCNC(=N)N)NC(=O)[C@H](CCCNC(=N)N)NC(=O)[C@H](CCCNC(=N)N)NC(=O)[C@H](CCCNC(=N)N)NC(=O)[C@H](CCCNC(=N)N)NC(=O)[C@H](CCCNC(=N)N)NC(=O)[C@@H](N)CCCNC(=N)N)C(=O)O [NP339], which Tolerability [1] is on record?
**A.** well tolerated

**Q.** What about the “Nonspecific immune response (cytokine measurements)” value (human whole blood) of the same molecule?
**A.** did not elicit a nonspecific immune response

**Q.** What about the “Cytotoxicity (live/dead cell ratio)” value (human PBMCs) of the same molecule?
**A.** not toxic

**Q.** What about the “Cytotoxicity (live/dead cell ratio)” value [2] of the same molecule?
**A.** not toxic
